Laboratory results reported in ChEMBL document CHEMBL1139561, “Biaryl isoxazolinone antibacterial agents” (Bioorg Med Chem Lett, 2005).
Values after ≈ are worked out from the molar mass of the structure shown.

Tests used:
[1] = test system: Haemophilus influenzae; test: Minimum inhibition concentration against Haemophilus influenzae strains; format: functional
[2] = test system: Staphylococcus aureus; test: Minimum inhibition concentration against Staphylococcus aureus strains in presence of 1% calf serum; format: functional
[3] = test system: Staphylococcus aureus; test: Minimum inhibition concentration against Staphylococcus aureus strains in presence of 2% calf serum; format: functional
[4] = test system: Staphylococcus aureus; test: Minimum inhibition concentration against Staphylococcus aureus strains in presence of 32% calf serum; format: functional
[5] = test system: Staphylococcus aureus; test: Minimum inhibition concentration against Staphylococcus aureus strains in presence of 16% calf serum; format: functional
[6] = test system: Staphylococcus aureus; test: Minimum inhibition concentration against Staphylococcus aureus strains in presence of 0.5% calf serum; format: functional
[7] = test system: Staphylococcus aureus; test: Minimum inhibition concentration against Staphylococcus aureus strains in presence of 4% calf serum; format: functional
[8] = test system: Staphylococcus aureus; test: Minimum inhibition concentration against Staphylococcus aureus strains in presence of 8% calf serum; format: functional
[9] = Protective dose against Staphylococcus aureus in mice after 8 days of oral b.i.d. administration at 1 and 5 hr per interval (n=10); format: functional; conditions: read-out: PD50
[10] = Half life for compound in mouse was determined; format: ADME; conditions: in vivo
[11] = Area under curve concentration in mouse was determined; format: ADME; conditions: in vivo
[12] = Maximum serum concentration in mouse was determined; format: ADME, organism-based
[13] = test system: Staphylococcus aureus; test: Minimum inhibition concentration against Staphylococcus aureus strains in presence of >64% calf serum; format: functional
[14] = Maximum serum concentration in rat was determined; format: ADME, organism-based
[15] = Half life for compound in rat was determined; format: ADME; conditions: in vivo
[16] = test system: Mus musculus; test: Protective dose against Staphylococcus aureus in mice after 8 days of oral b.i.d. administration at 1 and 5 h per interval with water as vehicle (n=10); range is 5-6 mg/kg/day; format: functional; conditions: read-out: PD50
[17] = test system: Staphylococcus aureus; test: Minimum inhibition concentration against Staphylococcus aureus strains in presence of >32% calf serum; format: functional

## COc1ccc(-c2ccc(-c3cn(CNC(C)=O)oc3=O)cc2)cc1OC
[1]
  MIC: 32 µg/mL (≈ 86.9 µM)
[2]
  MIC: 0.25 µg/mL

## CC(=O)NCn1cc(-c2ccc(-c3sccc3C=O)cc2)c(=O)o1
[1]
  MIC: 64 µg/mL (≈ 187 µM)
[2]
  MIC: 0.5 µg/mL

## CC(=O)NCn1cc(-c2ccc(C3CCN(C(C)=O)CC3)cc2)c(=O)o1
[1]
  MIC: 8 µg/mL (≈ 22.4 µM)
[2]
  MIC: 1 µg/mL

## CC(=O)NCn1cc(-c2ccc(-c3ccc(C#N)cc3)cc2)c(=O)o1
[1]
  MIC: 4 µg/mL (≈ 12 µM)
[3]
  MIC: 0.06 µg/mL

## CC(=O)NCn1cc(-c2ccc(C3CCOCC3)cc2)c(=O)o1
[1]
  MIC: 32 µg/mL (≈ 101 µM)
[3]
  MIC: 1 µg/mL

## COc1cccc(-c2ccc(-c3cn(CNC(C)=O)oc3=O)cc2)c1
[1]
  MIC: > 64 µg/mL
[2]
  MIC: 0.06 µg/mL

## CC(=O)NCn1cc(-c2ccc(-c3ccc(C)nc3)cc2)c(=O)o1
[1]
  MIC: 8 µg/mL (≈ 24.7 µM)
[3]
  MIC: 0.25 µg/mL

## CC(=O)NCn1cc(-c2ccc(-c3ccc(C(=O)O)c(F)c3)cc2)c(=O)o1
[1]
  MIC: 32 µg/mL (≈ 86.4 µM)
[4]; Staphylococcus aureus
  MIC: 4 µg/mL

## CC(=O)NCn1cc(-c2ccc(-c3ccc[nH]3)cc2)c(=O)o1
[1]
  MIC: > 64 µg/mL
[5]
  MIC: 8 µg/mL

## CC(=O)NCn1cc(-c2ccc(-c3ccc(OC(F)(F)F)cc3)cc2)c(=O)o1
[1]
  MIC: > 32 µg/mL
[5]
  MIC: 0.5 µg/mL

## COC(=O)c1ccc(-c2ccc(-c3cn(CNC(C)=O)oc3=O)cc2)cc1
[1]
  MIC: > 32 µg/mL
[6]
  MIC: 0.06 µg/mL

## CC(=O)NCn1cc(-c2ccc(-c3cc(C)cs3)cc2)c(=O)o1
[1]
  MIC: > 64 µg/mL
[7]
  MIC: 0.25 µg/mL

## COc1ccc(-c2ccc(-c3cn(CNC(C)=O)oc3=O)cc2)c(OC)c1
[1]
  MIC: > 32 µg/mL
[8]
  MIC: 2 µg/mL

## CSc1ccc(-c2ccc(-c3cn(CNC(C)=O)oc3=O)cc2)cc1
[1]
  MIC: > 32 µg/mL
[5]
  MIC: 0.5 µg/mL

## COc1ccccc1-c1ccc(-c2cn(CNC(C)=O)oc2=O)cc1
[1]
  MIC: 32 µg/mL (≈ 94.6 µM)
[8]
  MIC: 0.5 µg/mL

## CC(=O)NCn1cc(-c2ccc(-c3sccc3CO)cc2)c(=O)o1
[1]
  MIC: 32 µg/mL (≈ 92.9 µM)
[7]
  MIC: 0.25 µg/mL

## CC(=O)NCn1cc(-c2ccc(-c3c(C)noc3C)cc2)c(=O)o1
[1]
  MIC: > 64 µg/mL
[8]
  MIC: 2 µg/mL

## CC(=O)NCn1cc(-c2ccc(-c3ccc(/C=C/[N+](=O)[O-])cc3)cc2)c(=O)o1
[1]
  MIC: 4 µg/mL (≈ 10.5 µM)
[7]
  MIC: 0.125 µg/mL

## CC(=O)NCn1cc(-c2ccc(-c3cccc4ccccc34)cc2)c(=O)o1
[1]
  MIC: > 32 µg/mL
[4]
  MIC: 1 µg/mL
[4]; Staphylococcus aureus
  MIC: 1 µg/mL

## CC(=O)NCn1cc(-c2ccc(C3=CCN(C(=O)OC(C)(C)C)CC3)cc2)c(=O)o1
[1]
  MIC: > 64 µg/mL
[4]; Staphylococcus aureus
  MIC: 8 µg/mL

## CC(=O)NCn1cc(-c2ccc(-c3ccncc3)cc2)c(=O)o1
[1]
  MIC: 2 µg/mL (≈ 6.47 µM)
[9]
  ED50: 8.9 mg/kg/day
[6]
  MIC: 0.06 µg/mL
[10]
  half-life: 203 min
[11]
  AUC: 56 µg/h/mL
[12]
  Cmax: 17700 ng/mL

## CC(=O)NCn1cc(-c2ccc(-c3cncc(C(=O)O)c3)cc2)c(=O)o1
[1]
  MIC: 64 µg/mL (≈ 181 µM)
[13]
  MIC: 32 µg/mL

## CC(=O)NCn1cc(-c2ccc(-c3ccoc3)cc2)c(=O)o1
[1]
  MIC: 4 µg/mL (≈ 13.4 µM)
[9]
  ED50: > 50 mg/kg/day
[7]
  MIC: 0.125 µg/mL

## CC(=O)NCn1cc(-c2ccc(C3=CCOCC3)cc2)c(=O)o1
[1]
  MIC: 4 µg/mL (≈ 12.7 µM)
[2]
  MIC: 0.25 µg/mL

## CC(=O)NCn1cc(-c2ccc(C3CCN(C(=O)OC(C)(C)C)CC3)cc2)c(=O)o1
[1]
  MIC: 32 µg/mL (≈ 77 µM)
[5]
  MIC: 8 µg/mL

## CC(=O)NCn1cc(-c2ccc(-c3ccco3)cc2)c(=O)o1
[1]
  MIC: 16 µg/mL (≈ 53.6 µM)
[4]; Staphylococcus aureus
  MIC: 1 µg/mL

## CC(=O)NCn1cc(-c2ccc(C3=CC[S+]([O-])CC3)cc2)c(=O)o1 (stereo not given)
[1]
  MIC: 2 µg/mL (≈ 5.77 µM)
[9]
  ED50: 5.6 mg/kg/day
[10]
  half-life: 22.2 min
[11]
  AUC: 5.5 µg/h/mL
[2]
  MIC: 0.5 µg/mL
[12]
  Cmax: 8300 ng/mL

## CC(=O)NCn1cc(-c2ccc(C3=CCN(C(=O)CO)CC3)cc2)c(=O)o1
[1]
  MIC: 2 µg/mL (≈ 5.39 µM)
[14]
  Cmax: 1900 ng/mL
[15]
  half-life: 36 min
[9]
  ED50: 4 mg/kg/day
[6]
  MIC: 0.25 µg/mL
[10]
  half-life: 23.5 min
[11]
  AUC: 16.9 µg/h/mL
[12]
  Cmax: 22900 ng/mL

## CC(=O)NCn1cc(-c2ccc(-c3ccc(Cl)cc3)cc2)c(=O)o1
[1]
  MIC: > 32 µg/mL
[8]
  MIC: 0.06 µg/mL

## CC(=O)NCn1cc(-c2ccc(-c3sccc3CN3CCOCC3)cc2)c(=O)o1
[1]
  MIC: > 64 µg/mL
[13]
  MIC: 8 µg/mL

## CC(=O)NCn1cc(-c2ccc(C3CCN(C(=O)CO)CC3)cc2)c(=O)o1
[1]
  MIC: 16 µg/mL (≈ 42.8 µM)
[9]
  ED50: > 3.5 mg/kg/day
[3]
  MIC: 1 µg/mL

## CC(=O)NC[C@H]1CN(c2ccc(N3CCOCC3)c(F)c2)C(=O)O1 [LINEZOLID]
[1]
  MIC: 32 µg/mL (≈ 94.9 µM)
[16]
  ED50: 6 mg/kg/day
[3]
  MIC: 1 µg/mL

## CC(=O)NCn1cc(-c2ccc(C3=CCSCC3)cc2)c(=O)o1
[1]
  MIC: 32 µg/mL (≈ 96.8 µM)
[7]
  MIC: 1 µg/mL

## CC(=O)NCn1cc(-c2ccc(-c3ccc(C(F)(F)F)cc3)cc2)c(=O)o1
[1]
  MIC: > 32 µg/mL
[8]
  MIC: 0.25 µg/mL

## CC(=O)NCn1cc(-c2ccc(C3=CCN(C(=N)N)CC3)cc2)c(=O)o1
[1]
  MIC: 32 µg/mL (≈ 90 µM)
[5]
  MIC: 8 µg/mL

## CC(=O)NCn1cc(-c2ccc(-c3ccc(C(=O)O)cc3)cc2)c(=O)o1
[1]
  MIC: 2 µg/mL (≈ 5.68 µM)
[9]
  ED50: > 50 mg/kg/day
[10]
  half-life: 8.5 min
[11]
  AUC: 0.56 µg/h/mL
[8]
  MIC: 1 µg/mL
[12]
  Cmax: 1700 ng/mL

## CC(=O)NCn1cc(-c2ccc(-c3ncn(C)n3)cc2)c(=O)o1
[1]
  MIC: > 64 µg/mL
[8]
  MIC: 4 µg/mL

## CC(=O)NCn1cc(-c2ccc(C3=CCNCC3)cc2)c(=O)o1
[1]
  MIC: 16 µg/mL (≈ 51.1 µM)
[8]
  MIC: 8 µg/mL

## CC(=O)NCn1cc(-c2ccc(-c3cccnc3)cc2)c(=O)o1
[1]
  MIC: 2 µg/mL (≈ 6.47 µM)
[9]
  ED50: 10 mg/kg/day
[10]
  half-life: 86.7 min
[11]
  AUC: 41.1 µg/h/mL
[7]
  MIC: 0.5 µg/mL
[12]
  Cmax: 15300 ng/mL

## CC(=O)NCn1cc(-c2ccc(C3CCNCC3)cc2)c(=O)o1
[1]
  MIC: 32 µg/mL (≈ 101 µM)
[5]
  MIC: 32 µg/mL

## CC(=O)NCn1cc(-c2ccc(-c3ccc(Cl)s3)cc2)c(=O)o1
[1]
  MIC: 4 µg/mL (≈ 11.5 µM)
[8]
  MIC: 0.06 µg/mL

## CC(=O)NCn1cc(-c2ccc(-c3ccc(F)c(C(=O)O)c3)cc2)c(=O)o1
[1]
  MIC: 64 µg/mL (≈ 173 µM)
[13]
  MIC: 32 µg/mL

## CC(=O)NCn1cc(-c2ccc(-c3ccc([N+](=O)[O-])cc3)cc2)c(=O)o1
[1]
  MIC: > 32 µg/mL
[2]
  MIC: 0.03 µg/mL

## COc1cc(-c2ccc(-c3cn(CNC(C)=O)oc3=O)cc2)cc(OC)c1OC
[1]
  MIC: > 32 µg/mL
[5]
  MIC: 4 µg/mL

## CC(=O)NCn1cc(-c2ccc(C3=CCN(C(C)=O)CC3)cc2)c(=O)o1
[1]
  MIC: 2 µg/mL (≈ 5.63 µM)
[9]
  ED50: 9 mg/kg/day
[6]
  MIC: 0.25 µg/mL
[10]
  half-life: 6.4 min
[11]
  AUC: 1.5 µg/h/mL
[12]
  Cmax: 2600 ng/mL

## CC(=O)NCn1cc(-c2ccc(-c3cccc(N)c3)cc2)c(=O)o1
[1]
  MIC: 2 µg/mL (≈ 6.19 µM)
[3]
  MIC: 0.125 µg/mL

## CC(=O)NCn1cc(-c2ccc(-c3ccc(F)cc3F)cc2)c(=O)o1
[1]
  MIC: 4 µg/mL (≈ 11.6 µM)
[7]
  MIC: 0.125 µg/mL

## CC(=O)NCn1cc(-c2ccc(-c3ccccn3)cc2)c(=O)o1
[1]
  MIC: 8 µg/mL (≈ 25.9 µM)
[3]
  MIC: 1 µg/mL

## CC(=O)NCn1cc(-c2ccc(-c3ccc(F)cc3)cc2)c(=O)o1
[1]
  MIC: 2 µg/mL (≈ 6.13 µM)
[9]
  ED50: < 5 mg/kg/day
[7]
  MIC: 0.03 µg/mL

## CC(=O)NCn1cc(-c2ccc(-c3cncs3)cc2)c(=O)o1
[1]
  MIC: 4 µg/mL (≈ 12.7 µM)
[7]
  MIC: 0.5 µg/mL

## CC(=O)NCn1cc(-c2ccc(C3=CCS(=O)(=O)CC3)cc2)c(=O)o1
[1]
  MIC: 4 µg/mL (≈ 11 µM)
[9]
  ED50: 4 mg/kg/day
[10]
  half-life: 12.2 min
[11]
  AUC: 19.4 µg/h/mL
[2]
  MIC: 0.5 µg/mL
[12]
  Cmax: 17700 ng/mL

## CC(=O)NCn1cc(-c2ccc(-c3cccc(C(=O)O)c3)cc2)c(=O)o1
[1]
  MIC: 8 µg/mL (≈ 22.7 µM)
[5]
  MIC: 16 µg/mL

## CC(=O)NCn1cc(-c2ccc(-c3ccc(C(C)=O)cc3)cc2)c(=O)o1
[1]
  MIC: 4 µg/mL (≈ 11.4 µM)
[3]
  MIC: 0.06 µg/mL

## CC(=O)NCn1cc(-c2ccc(-c3ccc(O)cc3)cc2)c(=O)o1
[1]
  MIC: 8 µg/mL (≈ 24.7 µM)
[3]
  MIC: 1 µg/mL

## CC(=O)NCn1cc(-c2ccc(-c3ccc(Oc4ccccc4)cc3)cc2)c(=O)o1
[1]
  MIC: > 32 µg/mL
[17]
  MIC: 64 µg/mL
